This experiment deals with T1, rat hepatic microsomal HMG CoA reductase (Rattus norvegicus, UniProt P51639).
T1 construct: rat hepatic microsomal HMG CoA reductase activity in vitro; from tissue; host or cells: rat liver microsomes
T1 sequence (P51639 1-887): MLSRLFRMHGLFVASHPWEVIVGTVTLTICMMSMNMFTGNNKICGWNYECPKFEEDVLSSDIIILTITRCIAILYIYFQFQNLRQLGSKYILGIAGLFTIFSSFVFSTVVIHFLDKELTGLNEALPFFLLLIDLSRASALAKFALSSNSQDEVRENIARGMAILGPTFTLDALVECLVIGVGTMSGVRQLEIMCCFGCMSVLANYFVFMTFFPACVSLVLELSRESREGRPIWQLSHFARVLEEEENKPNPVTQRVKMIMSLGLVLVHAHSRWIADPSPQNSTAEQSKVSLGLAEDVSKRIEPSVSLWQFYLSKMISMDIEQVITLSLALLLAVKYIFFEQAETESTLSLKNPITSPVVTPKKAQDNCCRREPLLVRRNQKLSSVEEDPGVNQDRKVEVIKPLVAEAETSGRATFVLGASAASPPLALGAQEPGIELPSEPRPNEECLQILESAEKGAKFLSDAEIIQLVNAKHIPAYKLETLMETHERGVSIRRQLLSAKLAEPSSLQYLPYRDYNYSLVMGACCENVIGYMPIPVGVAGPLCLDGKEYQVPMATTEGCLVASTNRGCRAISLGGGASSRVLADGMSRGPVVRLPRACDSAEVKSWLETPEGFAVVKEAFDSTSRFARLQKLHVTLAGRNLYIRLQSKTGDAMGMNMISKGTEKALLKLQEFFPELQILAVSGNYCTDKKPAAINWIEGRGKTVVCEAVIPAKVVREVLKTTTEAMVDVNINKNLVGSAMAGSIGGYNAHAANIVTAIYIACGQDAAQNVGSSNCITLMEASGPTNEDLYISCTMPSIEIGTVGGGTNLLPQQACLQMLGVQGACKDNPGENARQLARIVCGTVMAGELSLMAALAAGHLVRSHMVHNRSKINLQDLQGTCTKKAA
The experiment is described as follows: inhibition of rat hepatic microsomal HMG CoA reductase activity in vitro. The experiment is classed as biochemical. The note with it: for inhibition at 0.027 µg/mL: 0.027 micrograms/ml; for inhibition at 0.082 µg/mL: 0.082 micrograms/ml; for inhibition at 0.24 µg/mL: 0.24 micrograms/ml; for inhibition at 0.74 µg/mL: 0.74 micrograms/ml; for inhibition at 2.22 µg/mL: 2.22 micrograms/ml; for inhibition at 6.66 µg/mL: 6.66 micrograms/ml; for inhibition at 0.25 µg/mL: 0.25 micrograms/ml; for inhibition at 6.67 µg/mL: 6.67 micrograms/ml; for inhibition at 20 µg/mL: 20.0 micrograms/ml. The source says: In the table the concentrations of the test compounds are expressed in micrograms/ml.

Molecules are shown by their SMILES.

For orientation: inhibition means the drop in the measured response relative to a control, in per cent. With `CCOC(=O)C[C@H](O)C[C@H](O)/C=C/c1c(-c2ccc(F)cc2)c2c3ccccc3cnn2c1C(C)C` (relative stereo) [CA, ethyl erythro-(E)-7-{1-(4-fluorophenyl)-3-isopropylpyrrolo[2,1-a]phthalazin-2-yl)-3,5-dihydroxyhept-6-enoate], 0.027 µg/mL produced 23% inhibition, the inhibition at 0.082 µg/mL came out at 33%, testing at 0.24 µg/mL gave an inhibition of 47% and at 0.74 µg/mL the inhibition was 65%. The same molecule gave an inhibition at 2.22 µg/mL of 85% and an inhibition at 6.66 µg/mL of 95%.
The molecule `CC(C)c1c(/C=C/[C@@H](O)C[C@@H](O)CC(=O)O)c(-c2ccc(F)cc2)c2c3ccccc3cnn12` (relative stereo) [Compound DA, sodium erythro-(E)-7-{1-(4-fluorophenyl)-3-isopropylpyrrolo[2,1-a]phthalazin-2-yl}-3,5-dihydroxyhept-6-enoate] returned an inhibition at 0.027 µg/mL of 49%, an inhibition at 0.082 µg/mL of 58%, an inhibition at 0.24 µg/mL of 72% and an inhibition at 0.74 µg/mL of 86%. Also, the inhibition at 2.22 µg/mL was 94% and at 6.66 µg/mL the inhibition was 98%.
Molecule `CC(C)c1c(/C=C/[C@@H](O)C[C@H](O)CC(=O)O)c(-c2ccc(F)cc2)c2c3ccccc3cnn12` (relative stereo) [Compound DB, sodium threo-(E)-7-{1-(4-fluorophenyl)-3-isopropylpyrrolo[2,1-a]-phthalazin-2-yl}-3,5-dihydroxyhept-6-enoate] registered an inhibition at 0.082 µg/mL of 34%, an inhibition at 0.24 µg/mL of 45%, an inhibition at 0.74 µg/mL of 52% and an inhibition at 2.22 µg/mL of 67%. This molecule also came in with an inhibition at 6.66 µg/mL of 85%. This molecule also returned an inhibition at 0.27 µg/mL (0.27 micrograms/ml (so in the source)) of 29%.
`CC(C)c1c(/C=C/C(O)CC(O)CC(=O)O)c(-c2ccccc2)c2c3ccccc3cnn12` (stereo not drawn) [Compound B, sodium (E)-3,5-dihydroxy-7-(3-isopropyl-1-phenylpyrrolo[2,1-a]phthalazin-2-yl)-hept-6-enoate] registered an inhibition at 0.25 µg/mL of 38%, an inhibition at 0.74 µg/mL of 56%, an inhibition at 2.22 µg/mL of 74% and an inhibition at 6.67 µg/mL of 90%. The same molecule came in with an inhibition at 20 µg/mL of 98%.
On to `CC(C)c1c(/C=C/C(O)CC(O)CC(=O)O)c(-c2ccc(F)cc2)c2c3ccccc3cnn12` (stereo not drawn) [Compound D, sodium (E)-7-{1-(4-fluorophenyl)-3-isopropylpyrrolo[2,1-a]-phthalazin-2-yl)-3,5-dihydroxyhept-6-enoate], for which 0.027 µg/mL produced 47% inhibition, the inhibition at 0.082 µg/mL was found to be 50%, the inhibition at 0.25 µg/mL was 61% and the inhibition at 0.74 µg/mL was determined as 66%. Besides, the inhibition at 2.22 µg/mL was 76% and the inhibition at 6.67 µg/mL is 90%.
`CC(C)c1c(/C=C/C(=O)CC(O)CC(=O)O)c(-c2ccc(F)cc2)c2c3ccccc3cnn12` (stereo not drawn) [Compound G, sodium (E)-7-{1-(4-fluorophenyl)-3-isopropylpyrrolo[2,1-a]phthalazin-2-yl)-3-hydroxy-5-oxohept-6-enoate] displayed an inhibition at 0.74 µg/mL of 29%, an inhibition at 2.22 µg/mL of 52%, an inhibition at 6.66 µg/mL of 77% and an inhibition at 20 µg/mL of 92%.

The values above are taken from US4960775A, “Pyrrolophthalazines” (May & Baker Limited, priority 1987, dated 1990).
